# Laboratory results taken from patent EP0267996A1, “New nucleotide derivatives” (TAMIR BIOTECHNOLOGY LTD., priority 1986, dated 1988).
# Legend:
# Assay type in all cases: binding
# Conditions in all cases: for Cross-reaction (%): RIA, 100x/y, masses of testosterone and heterologous compound giving 50% inhibition of binding of the tritiated ligand
# [1] = tested on: Polyclonal Rat IgG to testosterone (from the rats used for the fusion experiments); experiment: Dextran-coated charcoal radioimmunoassay (RIA): affinity and specificity of antibody
# Procedure: Immunization: Wistar-derived female rats (2 to 3 months old) from the Departmental Colon y were immunized by an intradermal injection of testosterone-3-(O-carboxymethyl)-oxime bovine serum albumin conjugate (200 ug/rat) incorporated in complete Freund's adjuvant. A month later the injection was repeated, and booster injections (100 ug/rat) were given three weeks later. All animals were bled from the tail ten days after the booster injection, and the antisera were tested then for titer and specificity.
# (§1) Characterization of antibodies: A dextran-coated charcoal radioimmunoassay method was used to detect specific antibodies to testosterone. Antibody titer denotes the dilution at which 50% of the labelled ligand, added at concentrations of 50 pg./ml., is bound as determined by radioimmunoassay. Cross reactivity (%) was calculated as proposed by Thorneycroft et al ("Immunologic Methods", Steroid Determination, Peron and Caldwell, eds., Appleton-Century-Crofts, New York 1970, pp. 63-86). as 100x/y where x is the mass of testosterone and y is the mass of heterologous compound required to produce 50% inhibition of the binding of the tritiated ligand. Affinity of the antibodies was calculated according to Abraham et al in Handbook of Radioimmunoassay, Marcel Dekker Inc., New York, 1977, pp. 591-656.
# [2] = tested on: monoclonal antibody to testosterone, clone F2 (rat spleen x mouse myeloma NSO/1 hybridoma; heavy chain class IgM); experiment: Dextran-coated charcoal radioimmunoassay (RIA): affinity and specificity of antibody in ascitic fluid
# Procedure: as §1
# (§2) After two weeks of growth, antibody-secreting hybridomas were detected by a RIA procedure in the tissue culture media of 30 out of the 147 cultures. During subsequent cell culture, 3 hybridoma lines that yielded high antibody titers were cloned by limiting dilutions and sub-cloned on semi-solid agar. When injected i.p. into pristane-trea ted irradiated F₁ mice or nude mice, the hybridomas grew as tumors and secreted high amounts of anti-testosterone antibodies into the ascitic fluid of these mice, with titers ranging from 1:10,000 to 1:60,000 (Table 1).
# (§3) Characterization of monoclonal antibodies: The ascitic fluid of mice derived from three hybridomas. H₆, F₂ and D₁₁ was further characterized for affinity and specificity by a dextran-coated RIA procedure.
# [3] = tested on: monoclonal antibody to testosterone, clone H6 (rat spleen x mouse myeloma NSO/1 hybridoma; heavy chain class Y2a); experiment: as above
# Procedure: as §1, §2, §3
# [4] = tested on: monoclonal antibody to testosterone, clone D11 (rat spleen x mouse myeloma NSO/1 hybridoma; heavy chain class Y2a); experiment: as above
# Procedure: as §1, §2, §3
# [5] = calculated according to the method of Abraham et al
SMILES,Cross-reaction (%) [1],Cross-reaction (%) [2],Cross-reaction (%) [3],Cross-reaction (%) [4],"Ka [1, 5]","Ka [2, 5]","Ka [3, 5]","Ka [4, 5]"
C[C@]12CCC(=O)C[C@@H]1CC[C@@H]1[C@@H]2CC[C@]2(C)[C@@H](O)CC[C@@H]12 [5-alpha-Dihydrotestosterone],10%,2%,100%,100%,–,–,–,–
C[C@]12CCC(=O)C[C@H]1CC[C@@H]1[C@@H]2CC[C@]2(C)[C@@H](O)CC[C@@H]12 [5-beta-Dihydrotestosterone],2%,15%,0.5%,8.5%,–,–,–,–
C[C@]12CC[C@H]3[C@@H](CCC4=CC(=O)CC[C@@]43C)[C@@H]1CC[C@@H]2O [Testosterone],100%,100%,100%,100%,3.7e+09 L/mol,1e+10 L/mol,2.1e+10 L/mol,1.85e+10 L/mol
